In ChEMBL document CHEMBL1201862, “PubChem BioAssay data set” (2004):
The source made the active and inactive calls.

Tests used:
Escherichia coli [1] = assay: microbe, parasite or virus in culture
Escherichia coli [2] = assay: microbe, parasite or virus in culture; remark: listed apart in the source
[3] = luciferase reporter signal suppression in cells – H4 neuroglioma cells, luminescence, dose response (AID 1990); format: functional, cell-based
[4] = luciferase reporter signal reduction – luminescence, H4-C neuroglioblastoma cells, dose response (AID 2458); format: functional, cell-based;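 note: H4 neuroglioblastoma cells stably carrying a luciferase reporter gene fusion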
cells = format: functional, cell-based
[5] = Luminescence Cell-Based Dose Response HTS to Identify Inhibitors of 5'UTR Stem-Loop Driven Prion Protein mRNA Translation in H4 Neuroglioblastoma Cells. [Related pubchem assays: 1827 (Project Summary), 1813 (Primary HTS)]; format: functional
[6] = alpha-synuclein stem-loop luciferase translation blockers – H4 neuroglioma cells, luminescence, confirmation (AID 1988); format: functional, cell-based
BJ [7] = assay: cells; format: functional, cell-based; conditions: Homo sapiens
BJ [8] = assay: BJ-TERT-LT-ST fibroblast viability loss – cell-based, RAS-independent, luminescence, dose response (AID 1935); format: functional; conditions: Homo sapiens;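 note: BJ fibroblasts immortalized with TERT plus LT and ST oncogenes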
[9] = DRD fibroblast viability loss – cell-based, non-viral oncogenic, luminescence, dose response (AID 1934); format: functional; conditions: Homo sapiens
[10] = alpha-synuclein stem-loop translation blockers – luminescence, H4 neuroglioblastoma cells, dose confirmation, confirmation (AID 2454); format: functional, cell-based;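 note: H4 neuroglioblastoma cells carrying an alpha-synuclein 5'UTR luciferase reporter; potency for inhibition of the luciferase signal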
Phospholipase A2 = Phospholipase A2 (Homo sapiens, UniProt P04054); assay: phospholipase A2 activity inhibition – biochemical, set 2, counter-screen for ATG4B inhibitor project, dose response (AID 588586); format: functional
Chain of Phospholipase A2 (P04054 whole entry): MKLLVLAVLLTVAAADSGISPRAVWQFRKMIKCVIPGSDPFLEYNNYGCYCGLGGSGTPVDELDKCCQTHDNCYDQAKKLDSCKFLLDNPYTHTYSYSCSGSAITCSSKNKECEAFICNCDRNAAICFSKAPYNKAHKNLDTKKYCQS

BJ [11] = assay: growth inhibition of engineered Ras-driven BJ cells – cell-based, alamar blue fluorescence, cherrypicked samples, dose response (AID 2631); format: functional; conditions: Homo sapiens;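 note: confirmatory dose-response assay in RAS-dependent BJ fibroblasts engineered with TERT, LT and ST, with cytotoxicity read by fluorescence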
Cysteine protease ATG4B = molecular target: T1, Cysteine protease ATG4B (Homo sapiens, UniProt Q9Y4P1); assay: autophagin-1 cysteine protease inhibition – biochemical, fluorescence, set 2, dose response (AID 588584); format: functional
T1 sequence (Q9Y4P1 whole entry): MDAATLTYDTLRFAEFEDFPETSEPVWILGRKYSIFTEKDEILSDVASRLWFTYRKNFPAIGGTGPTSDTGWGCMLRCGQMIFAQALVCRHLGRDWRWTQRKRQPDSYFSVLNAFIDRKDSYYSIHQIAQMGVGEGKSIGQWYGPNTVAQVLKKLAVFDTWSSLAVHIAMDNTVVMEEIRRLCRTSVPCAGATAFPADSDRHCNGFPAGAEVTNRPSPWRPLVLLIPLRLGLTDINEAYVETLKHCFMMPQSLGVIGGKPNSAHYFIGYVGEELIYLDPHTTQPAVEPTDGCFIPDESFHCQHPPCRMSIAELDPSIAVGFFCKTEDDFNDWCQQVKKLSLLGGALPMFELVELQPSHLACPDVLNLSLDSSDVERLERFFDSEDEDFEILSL

Hexokinase-1 = molecular target: T2, Hexokinase-1 (Homo sapiens, UniProt P19367); assay: hexokinase 1 activity inhibitors, potency – biochemical, set 2, resazurin fluorescence coupled readout, selectivity assay for HKDC1 inhibitor project, SAR follow-up (AID 588356); format: functional
T2 sequence (P19367 whole entry): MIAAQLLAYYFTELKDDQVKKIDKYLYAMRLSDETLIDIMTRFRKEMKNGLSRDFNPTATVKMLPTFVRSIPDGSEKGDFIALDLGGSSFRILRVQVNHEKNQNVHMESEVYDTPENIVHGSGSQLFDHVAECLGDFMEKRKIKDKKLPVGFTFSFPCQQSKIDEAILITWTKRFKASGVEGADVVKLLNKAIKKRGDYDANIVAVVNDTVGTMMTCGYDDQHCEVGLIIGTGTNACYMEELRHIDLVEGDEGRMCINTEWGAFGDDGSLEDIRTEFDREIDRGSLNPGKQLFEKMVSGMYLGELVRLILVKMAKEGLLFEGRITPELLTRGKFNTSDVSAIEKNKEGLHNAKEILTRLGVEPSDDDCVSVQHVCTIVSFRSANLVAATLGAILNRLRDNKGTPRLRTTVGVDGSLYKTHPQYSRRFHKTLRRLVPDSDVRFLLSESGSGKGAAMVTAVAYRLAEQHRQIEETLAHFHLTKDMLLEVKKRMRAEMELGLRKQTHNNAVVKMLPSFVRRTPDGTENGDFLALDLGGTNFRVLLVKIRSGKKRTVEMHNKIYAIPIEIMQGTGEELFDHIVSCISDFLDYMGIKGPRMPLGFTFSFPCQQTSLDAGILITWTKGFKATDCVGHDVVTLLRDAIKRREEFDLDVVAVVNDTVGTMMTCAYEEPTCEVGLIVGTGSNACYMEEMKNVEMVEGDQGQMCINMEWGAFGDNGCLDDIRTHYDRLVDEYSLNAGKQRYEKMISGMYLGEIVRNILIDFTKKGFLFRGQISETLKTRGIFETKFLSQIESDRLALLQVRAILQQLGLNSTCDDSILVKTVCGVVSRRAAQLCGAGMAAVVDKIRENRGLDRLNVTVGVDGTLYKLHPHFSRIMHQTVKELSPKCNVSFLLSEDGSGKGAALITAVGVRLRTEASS

Hexokinase HKDC1 = molecular target: T3, Hexokinase HKDC1 (Homo sapiens, UniProt Q2TB90); assay: analog inhibition of human HKDC1 activity – biochemical, set 2, SAR follow-up (AID 588355); format: functional
T3 sequence (Q2TB90 whole entry): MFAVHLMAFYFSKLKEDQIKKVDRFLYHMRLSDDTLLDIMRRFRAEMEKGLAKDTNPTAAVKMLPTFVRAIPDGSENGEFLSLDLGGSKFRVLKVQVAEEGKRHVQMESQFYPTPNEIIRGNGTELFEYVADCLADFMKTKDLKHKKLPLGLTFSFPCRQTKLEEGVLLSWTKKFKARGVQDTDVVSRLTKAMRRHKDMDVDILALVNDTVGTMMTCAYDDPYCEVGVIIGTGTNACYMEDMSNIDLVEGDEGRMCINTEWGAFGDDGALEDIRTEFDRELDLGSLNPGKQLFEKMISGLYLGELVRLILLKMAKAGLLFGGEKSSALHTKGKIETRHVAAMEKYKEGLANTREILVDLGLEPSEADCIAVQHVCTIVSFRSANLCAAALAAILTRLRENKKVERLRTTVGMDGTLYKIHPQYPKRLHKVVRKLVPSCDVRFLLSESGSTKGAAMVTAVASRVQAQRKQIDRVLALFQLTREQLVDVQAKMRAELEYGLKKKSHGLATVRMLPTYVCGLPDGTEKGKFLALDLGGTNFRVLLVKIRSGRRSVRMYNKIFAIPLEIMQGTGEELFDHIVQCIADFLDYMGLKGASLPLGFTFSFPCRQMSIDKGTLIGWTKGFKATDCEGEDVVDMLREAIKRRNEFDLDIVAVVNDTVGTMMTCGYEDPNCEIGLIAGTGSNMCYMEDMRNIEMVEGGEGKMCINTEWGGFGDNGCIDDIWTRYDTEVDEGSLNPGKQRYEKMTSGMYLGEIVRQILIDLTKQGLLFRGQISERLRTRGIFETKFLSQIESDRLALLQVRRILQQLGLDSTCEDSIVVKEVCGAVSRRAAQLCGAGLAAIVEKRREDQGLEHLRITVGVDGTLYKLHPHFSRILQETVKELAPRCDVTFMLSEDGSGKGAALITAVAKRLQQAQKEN

[12] = viability of uninfected HEp-2 cells – cell-based, HTS, cytotoxicity control for RSV inhibitor project, dose response (AID 2410); format: functional; conditions: human respiratory syncytial virus
Vero = assay: cells; format: functional, cell-based; conditions: Chlorocebus sabaeus
[13] = molecular target: T4, High affinity choline transporter 1 (Homo sapiens, UniProt Q9GZV3); assay: human choline transporter blockers, potency – cell-based, 5-point CRC, membrane potential dye, dose response (AID 504840); format: functional
T4 sequence (Q9GZV3 whole entry): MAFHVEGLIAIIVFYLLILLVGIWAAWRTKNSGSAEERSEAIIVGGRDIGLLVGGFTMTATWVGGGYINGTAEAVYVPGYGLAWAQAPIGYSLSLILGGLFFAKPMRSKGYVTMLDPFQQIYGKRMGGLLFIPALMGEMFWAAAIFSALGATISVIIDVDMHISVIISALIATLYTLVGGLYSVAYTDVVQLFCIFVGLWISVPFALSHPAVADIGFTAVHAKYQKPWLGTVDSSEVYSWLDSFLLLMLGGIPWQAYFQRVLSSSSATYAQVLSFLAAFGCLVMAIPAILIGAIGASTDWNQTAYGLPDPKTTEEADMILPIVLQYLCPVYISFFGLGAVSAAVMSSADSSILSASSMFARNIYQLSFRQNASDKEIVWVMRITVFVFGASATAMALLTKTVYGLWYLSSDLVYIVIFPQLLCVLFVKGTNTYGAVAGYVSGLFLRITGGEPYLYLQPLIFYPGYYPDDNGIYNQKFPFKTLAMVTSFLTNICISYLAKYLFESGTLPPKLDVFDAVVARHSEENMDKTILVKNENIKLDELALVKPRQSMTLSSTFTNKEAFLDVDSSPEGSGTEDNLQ

MDCK = assay: antiviral activity against H1N1 influenza, dose response, cell-based, strain KY136 (AID 540257); format: functional; conditions: Canis lupus familiaris
[14] = molecular target: T5, Mannose-6-phosphate isomerase (Homo sapiens, UniProt P34949); assay: phosphomannose isomerase inhibition – biochemical, fluorescence intensity, confirmation (AID 1535)
T5 sequence (P34949 whole entry): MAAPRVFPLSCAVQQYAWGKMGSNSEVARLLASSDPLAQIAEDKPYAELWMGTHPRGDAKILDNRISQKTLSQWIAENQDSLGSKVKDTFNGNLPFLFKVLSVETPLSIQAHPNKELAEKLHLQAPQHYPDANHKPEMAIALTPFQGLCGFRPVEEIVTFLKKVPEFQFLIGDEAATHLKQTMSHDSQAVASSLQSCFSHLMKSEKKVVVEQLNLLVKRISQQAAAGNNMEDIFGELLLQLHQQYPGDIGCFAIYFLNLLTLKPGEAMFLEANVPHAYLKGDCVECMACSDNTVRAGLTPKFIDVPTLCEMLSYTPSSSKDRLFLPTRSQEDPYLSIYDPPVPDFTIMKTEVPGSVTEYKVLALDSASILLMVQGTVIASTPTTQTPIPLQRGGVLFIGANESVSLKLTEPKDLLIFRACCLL

Phosphomannomutase 2 = Phosphomannomutase 2 (Homo sapiens, UniProt O15305); assay: Counter screen SAR assay for PMM2 inhibitors via a fluorescence intensity assay. [Related pubchem assays (depositor defined):AID1545, AID1574]
Chain of Phosphomannomutase 2 (O15305 whole entry): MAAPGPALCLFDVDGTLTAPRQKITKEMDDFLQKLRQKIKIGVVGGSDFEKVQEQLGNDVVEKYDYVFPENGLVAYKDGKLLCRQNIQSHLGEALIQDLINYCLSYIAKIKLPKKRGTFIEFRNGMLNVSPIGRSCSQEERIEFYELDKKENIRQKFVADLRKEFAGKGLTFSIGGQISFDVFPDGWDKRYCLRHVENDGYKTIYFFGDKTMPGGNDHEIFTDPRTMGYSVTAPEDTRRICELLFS

[15] = molecular target: UDP-galactopyranose mutase (Mycobacterium tuberculosis, UniProt P9WIQ1); assay: Inhibitors of Mycobacterium tuberculosis UDP-galactopyranose mutase (UGM) enzyme Measured in Biochemical System Using Plate Reader - 2105-02_Inhibitor_Dose_CherryPick_Activity. [Related pubchem assays (depositor defined):AID504439]
Chain of UDP-galactopyranose mutase (P9WIQ1 whole entry): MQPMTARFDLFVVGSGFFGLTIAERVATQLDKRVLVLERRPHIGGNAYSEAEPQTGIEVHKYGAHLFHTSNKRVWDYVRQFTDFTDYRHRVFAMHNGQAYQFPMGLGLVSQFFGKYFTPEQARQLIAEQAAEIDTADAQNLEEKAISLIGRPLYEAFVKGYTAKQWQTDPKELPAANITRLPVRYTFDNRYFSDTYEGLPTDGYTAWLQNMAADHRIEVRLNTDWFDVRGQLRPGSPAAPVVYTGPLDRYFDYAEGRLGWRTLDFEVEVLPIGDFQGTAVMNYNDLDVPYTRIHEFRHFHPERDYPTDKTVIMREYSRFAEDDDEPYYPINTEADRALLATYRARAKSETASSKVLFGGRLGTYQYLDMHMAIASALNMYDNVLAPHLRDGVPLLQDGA

[16] = molecular target: T6, Heat shock factor protein 1 (Mus musculus, UniProt P38532); assay: decrease of HSF1-responsive luciferase luminescence – cell-based, NIH3T3, dose retest, confirmation (AID 2382); format: functional;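 note: NIH3T3 fibroblasts with HSF1-driven luciferase reporter stressed by proteasome inhibitor MG132; luminescence from HSF1-driven luciferase expression after 8 hours of MG132 stress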
T6 sequence (P38532 whole entry): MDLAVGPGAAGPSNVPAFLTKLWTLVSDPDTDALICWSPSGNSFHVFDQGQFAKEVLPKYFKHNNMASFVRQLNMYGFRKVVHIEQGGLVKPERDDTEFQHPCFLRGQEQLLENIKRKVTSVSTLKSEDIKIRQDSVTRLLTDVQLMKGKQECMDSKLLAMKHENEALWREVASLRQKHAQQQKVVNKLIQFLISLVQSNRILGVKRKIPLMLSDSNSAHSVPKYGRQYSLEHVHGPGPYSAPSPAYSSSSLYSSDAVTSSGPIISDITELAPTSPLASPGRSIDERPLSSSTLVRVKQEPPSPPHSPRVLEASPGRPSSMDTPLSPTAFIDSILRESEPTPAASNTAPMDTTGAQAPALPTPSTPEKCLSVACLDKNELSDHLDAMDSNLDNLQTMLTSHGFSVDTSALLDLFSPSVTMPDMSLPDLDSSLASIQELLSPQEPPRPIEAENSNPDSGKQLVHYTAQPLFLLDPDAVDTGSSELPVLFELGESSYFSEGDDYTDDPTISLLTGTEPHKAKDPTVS

[17] = molecular target: Luciferin 4-monooxygenase (Photuris pensylvanica, UniProt Q27757); assay: inhibition of Cell Titer Glo luciferase signal – biochemical, luminescence, cherry-picks, counter-screen for HSF-1 reporter inhibitor project, dose response (AID 588847)
Chain of Luciferin 4-monooxygenase (Q27757 whole entry): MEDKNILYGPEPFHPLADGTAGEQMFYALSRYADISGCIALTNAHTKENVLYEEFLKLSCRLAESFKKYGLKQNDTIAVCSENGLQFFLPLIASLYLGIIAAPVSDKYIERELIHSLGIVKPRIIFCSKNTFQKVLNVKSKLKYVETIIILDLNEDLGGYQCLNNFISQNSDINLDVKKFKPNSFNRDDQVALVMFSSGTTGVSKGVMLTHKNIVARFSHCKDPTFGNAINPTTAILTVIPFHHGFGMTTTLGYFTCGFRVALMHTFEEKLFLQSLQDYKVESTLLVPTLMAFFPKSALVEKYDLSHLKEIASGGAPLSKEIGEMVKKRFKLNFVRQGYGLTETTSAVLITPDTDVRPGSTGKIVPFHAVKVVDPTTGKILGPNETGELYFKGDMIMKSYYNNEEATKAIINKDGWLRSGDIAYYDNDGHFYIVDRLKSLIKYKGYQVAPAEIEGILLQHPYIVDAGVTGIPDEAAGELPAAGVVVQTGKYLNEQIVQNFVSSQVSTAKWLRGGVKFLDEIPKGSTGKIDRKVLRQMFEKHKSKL

HeLa = assay: viability loss in HeLa cells – cell-based, 24 h, cherry-picked samples, cytotoxicity control, dose response (AID 504726); format: functional; conditions: Homo sapiens;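 note: potency for cytotoxicity as loss of luminescence signal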
Salmon testes DNA = assay: acridine orange-DNA binding displacement – biochemical, fluorescence polarization, cherry-picked samples, set 2, artefact control for KSHV LANA DNA-binding inhibitor project, dose response (AID 504727); design: species or system Salmonidae
ORF 73 = ORF 73 (Human herpesvirus 8, UniProt O40947); assay: KSHV LANA DNA-binding disruption – biochemical, fluorescence polarization, cherry-picked samples, dose response (AID 504725); design: species or system Human gammaherpesvirus 8;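 note: fluorescence polarization of a labeled DNA duplex reporting LANA DNA binding; potency is for inhibitors that block LANA binding to the DNA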
Chain of ORF 73 (O40947 whole entry): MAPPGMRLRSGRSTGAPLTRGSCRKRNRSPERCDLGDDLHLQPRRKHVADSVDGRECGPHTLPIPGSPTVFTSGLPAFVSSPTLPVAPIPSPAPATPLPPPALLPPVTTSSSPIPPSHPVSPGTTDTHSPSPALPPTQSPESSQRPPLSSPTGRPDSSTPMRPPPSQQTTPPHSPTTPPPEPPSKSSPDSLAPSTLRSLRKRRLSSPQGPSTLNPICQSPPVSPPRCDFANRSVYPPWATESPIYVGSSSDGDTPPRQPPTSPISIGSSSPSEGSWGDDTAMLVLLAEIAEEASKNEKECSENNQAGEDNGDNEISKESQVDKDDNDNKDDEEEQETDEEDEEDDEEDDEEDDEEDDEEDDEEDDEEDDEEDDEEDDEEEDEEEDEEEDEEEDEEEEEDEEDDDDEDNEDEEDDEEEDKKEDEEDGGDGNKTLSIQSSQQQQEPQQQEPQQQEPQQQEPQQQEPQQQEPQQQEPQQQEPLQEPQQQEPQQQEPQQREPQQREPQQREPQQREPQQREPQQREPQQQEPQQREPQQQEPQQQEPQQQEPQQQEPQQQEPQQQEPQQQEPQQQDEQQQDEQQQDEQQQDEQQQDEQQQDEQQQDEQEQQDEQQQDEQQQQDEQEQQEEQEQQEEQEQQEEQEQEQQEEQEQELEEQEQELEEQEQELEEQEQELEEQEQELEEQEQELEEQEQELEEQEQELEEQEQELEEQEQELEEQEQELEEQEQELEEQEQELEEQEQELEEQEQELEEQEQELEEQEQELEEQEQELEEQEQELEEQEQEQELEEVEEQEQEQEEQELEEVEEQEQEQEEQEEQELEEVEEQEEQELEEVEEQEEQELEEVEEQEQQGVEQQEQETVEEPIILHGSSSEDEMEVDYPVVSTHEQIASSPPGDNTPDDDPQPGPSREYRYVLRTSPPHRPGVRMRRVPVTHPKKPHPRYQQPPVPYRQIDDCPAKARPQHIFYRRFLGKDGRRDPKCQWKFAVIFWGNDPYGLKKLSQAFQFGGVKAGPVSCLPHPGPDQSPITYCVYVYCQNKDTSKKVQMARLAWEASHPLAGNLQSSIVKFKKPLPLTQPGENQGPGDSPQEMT

Keap1/Nrf2 = Keap1/Nrf2 (Homo sapiens, UniProt Q14145); assay: disruptors of Keap1 binding to Nrf2 peptide – biochemical, fluorescence polarization, cherry-picked samples, dose response (AID 588683)
Chain of Keap1/Nrf2 (Q16236 whole entry): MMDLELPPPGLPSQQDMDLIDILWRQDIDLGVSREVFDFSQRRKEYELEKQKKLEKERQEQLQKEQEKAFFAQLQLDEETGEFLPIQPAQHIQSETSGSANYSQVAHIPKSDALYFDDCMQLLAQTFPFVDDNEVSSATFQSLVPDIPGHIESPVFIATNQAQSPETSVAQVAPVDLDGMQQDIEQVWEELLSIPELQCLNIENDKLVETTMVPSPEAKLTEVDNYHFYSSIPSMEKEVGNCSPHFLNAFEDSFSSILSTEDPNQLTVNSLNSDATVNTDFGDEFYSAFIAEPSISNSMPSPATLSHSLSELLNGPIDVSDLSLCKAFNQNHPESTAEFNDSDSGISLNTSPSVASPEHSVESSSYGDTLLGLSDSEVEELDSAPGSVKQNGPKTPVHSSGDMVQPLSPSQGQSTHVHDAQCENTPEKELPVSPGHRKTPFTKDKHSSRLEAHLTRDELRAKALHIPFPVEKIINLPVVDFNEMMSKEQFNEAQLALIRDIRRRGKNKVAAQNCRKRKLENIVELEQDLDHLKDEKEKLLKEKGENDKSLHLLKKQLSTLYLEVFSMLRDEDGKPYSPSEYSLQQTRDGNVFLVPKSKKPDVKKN
Chain of Keap1/Nrf2 (Q14145 whole entry): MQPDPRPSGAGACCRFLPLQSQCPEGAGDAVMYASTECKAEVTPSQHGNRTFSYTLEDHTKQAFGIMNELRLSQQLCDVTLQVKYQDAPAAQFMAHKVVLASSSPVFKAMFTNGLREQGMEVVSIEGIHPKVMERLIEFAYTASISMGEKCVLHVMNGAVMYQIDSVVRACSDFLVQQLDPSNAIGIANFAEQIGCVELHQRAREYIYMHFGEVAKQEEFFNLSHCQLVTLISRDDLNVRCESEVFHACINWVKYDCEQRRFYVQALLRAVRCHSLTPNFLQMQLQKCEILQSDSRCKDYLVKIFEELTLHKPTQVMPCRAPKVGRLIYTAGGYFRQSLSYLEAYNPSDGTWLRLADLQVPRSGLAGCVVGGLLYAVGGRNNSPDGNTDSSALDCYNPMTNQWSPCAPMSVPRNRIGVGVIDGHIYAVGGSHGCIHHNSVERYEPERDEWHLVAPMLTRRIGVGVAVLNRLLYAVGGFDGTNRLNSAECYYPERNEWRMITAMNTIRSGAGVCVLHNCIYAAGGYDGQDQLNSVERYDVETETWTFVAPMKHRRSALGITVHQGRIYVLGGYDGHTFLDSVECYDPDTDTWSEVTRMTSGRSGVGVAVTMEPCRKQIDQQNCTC

CCN(CC)CC(=O)c1c[nH]c2ccc(OC)cc12
AC50 (Escherichia coli [1]): 26.5 µM (active)
AC50 (Escherichia coli [2]): 25.6 µM (active)

CCC1=Nc2cc(C(=O)NCc3ccco3)ccc2Sc2ccc(C)cc21
EC50 [3]: 0.25 µM (active)
EC50 [4]: 0.756 µM (active)
EC50 (cells): 0.919 µM (active)
EC50 [5]: 0.243 µM (active)
EC50 [6]: < 0.1 µM (active)
EC50 (BJ [7]): 13.1 µM (inconclusive)
EC50 (BJ [8]): 0.597 µM (active)
EC50 [9]: 0.496 µM (active)
EC50 [10]: > 12 µM (inconclusive)
IC50 (Phospholipase A2): 51.7 µM (inactive)
EC50 (BJ [11]): < 0.104 µM (active)
IC50 (Cysteine protease ATG4B): > 80 µM (inactive)

CNc1cc2n(c(=O)n1)CCc1cc(OC)c(OC)cc1-2
IC50 (Hexokinase-1): > 80 µM (inactive)
IC50 (Hexokinase HKDC1): > 80 µM (inactive)

Cc1cccc(NC(=O)CSc2nc3ccccc3nc2N2CCCC2)c1
CC50 [12]: 13.7 µM (active)
IC50 (Vero): > 25 µM (active)

O=S(=O)(Cc1cc(Cl)nc(-c2cccnc2)n1)c1ccccc1
IC50 [13]: 10.5 µM (active)
IC50 (MDCK): > 100 µM (active)

Clc1nss/c1=N\c1ccc2ccccc2c1
IC50 [14]: 14.1 µM (active)
IC50 (Phosphomannomutase 2): > 100 µM (inactive)

CC(C)OCCCn1/c(=N/C(=O)c2ccncc2)c(C#N)cc2c(=O)n3ccccc3nc21
AC50 [15]: 160 µM (active)

CC(C)(C)c1ccc(/C=N/Nc2cccc(C(=O)O)c2)cc1
EC50 [16]: < 0.16 µM (active)
AC50 [17]: 3.37 µM (active)

CCCCCCn1c(=O)[nH]c2nc3cc(N)c(C)cc3nc2c1=O
AC50 (HeLa): 181 µM (active)
AC50 (Salmon testes DNA): 53.1 µM (active)
AC50 (ORF 73): 95.9 µM (active)
AC50 (Keap1/Nrf2): 7.7 µM (active)
